Key:
DIP-BuChE = biological target: T1, DIP-BuChE (Homo sapiens, UniProt P06276); test: Reactivation by PAM of DFP-inhibited enzyme; assay type: biochemical
T1 construct: made in house; host or cells: Xenopus oocytes (microinjected in vitro transcribed mRNA)
Procedure: (§1) and 1 μM DFP. The pseudo-first order rate constant for reactivation, […]

[1] = test system: Chimera of human AChE and BuChE; test: Reactivation by PAM of DFP-inhibited enzyme; assay type: biochemical
Procedure: as §1

BuChE L^286 K = BuChE L^286 K (Homo sapiens, UniProt P06276, L314K); test: Reactivation by PAM of DFP-inhibited enzyme; assay type: biochemical
Chain of BuChE L^286 K (P06276 29-602 L314K limits assumed): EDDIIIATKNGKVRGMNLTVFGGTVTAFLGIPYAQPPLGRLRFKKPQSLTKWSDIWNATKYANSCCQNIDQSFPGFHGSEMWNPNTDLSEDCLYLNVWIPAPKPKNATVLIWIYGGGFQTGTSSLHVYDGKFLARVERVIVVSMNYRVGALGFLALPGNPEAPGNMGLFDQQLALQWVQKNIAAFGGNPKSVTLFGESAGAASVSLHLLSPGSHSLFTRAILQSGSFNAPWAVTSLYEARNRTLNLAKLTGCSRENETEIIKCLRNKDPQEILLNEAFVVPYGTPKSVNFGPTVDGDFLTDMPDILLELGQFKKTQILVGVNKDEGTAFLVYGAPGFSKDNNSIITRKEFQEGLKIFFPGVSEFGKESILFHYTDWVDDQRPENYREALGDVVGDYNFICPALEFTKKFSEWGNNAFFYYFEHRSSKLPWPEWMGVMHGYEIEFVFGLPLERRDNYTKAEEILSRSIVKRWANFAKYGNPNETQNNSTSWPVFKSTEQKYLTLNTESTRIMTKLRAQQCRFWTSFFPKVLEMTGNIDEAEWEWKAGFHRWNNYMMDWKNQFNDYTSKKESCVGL
Procedure: as §1

AChE (E5) = AChE (E5) (Homo sapiens, UniProt P22303)
Chain of AChE (E5) (P22303-4 with tags, fused parts or gaps limits assumed): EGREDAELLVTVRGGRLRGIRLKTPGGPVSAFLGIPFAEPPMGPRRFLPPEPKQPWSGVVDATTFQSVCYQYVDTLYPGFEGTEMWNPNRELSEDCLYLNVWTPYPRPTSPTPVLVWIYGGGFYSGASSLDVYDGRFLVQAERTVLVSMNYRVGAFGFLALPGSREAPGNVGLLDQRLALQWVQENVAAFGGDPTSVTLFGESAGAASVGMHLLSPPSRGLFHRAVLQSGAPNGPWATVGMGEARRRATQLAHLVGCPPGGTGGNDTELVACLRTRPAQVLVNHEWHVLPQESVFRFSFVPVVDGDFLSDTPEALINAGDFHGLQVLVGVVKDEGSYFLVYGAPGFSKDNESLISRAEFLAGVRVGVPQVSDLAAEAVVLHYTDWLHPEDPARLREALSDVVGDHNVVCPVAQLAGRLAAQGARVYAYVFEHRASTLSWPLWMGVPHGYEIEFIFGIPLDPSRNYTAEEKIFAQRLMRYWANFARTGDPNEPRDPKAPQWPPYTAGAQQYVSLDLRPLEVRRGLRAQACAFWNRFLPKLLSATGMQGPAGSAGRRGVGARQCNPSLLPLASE
Procedure: (§2) Single-step enrichment for AChE or BuChE on immobilized antibody: Monoclonal mouse anti-human serum BuChE (53-4) or anti-human ACHE (101-1) antibodies (Liao et al., 1993), were adsorbed to microliter plates (Nunc, Roskilde, Denmark) at […] in 0.1 M carbonate buffer, pH 9.6, for at least four hours at room temperature. Plates were then washed three times in PBS-T buffer (144 mM NaCl, 20 mM Na phosphate, pH 7.4, 0.05% Tween-20). Free binding sites on the well surface of the microliter plate were blocked with PBS-T for one hour at 37° C. […] Microinjected oocyte homogenates containing the enzyme were then added at a dilution of 1:20 in PBS-T or at a concentration of 100 mIU/ml in PBS-T for at least 3 hours at room temperature with agitation. Plates were washed three times with PBS-T before use. Inactivation was performed at pH 7.4 in order to facilitate comparison with similar studies in the literature.
(§3) and 1 μM DFP. The pseudo-first order rate constant for reactivation,
(§4) ^a True first order rate constants for reactivation (kr) and […]

AChE (E6) = AChE (E6) (Homo sapiens, UniProt P22303)
Chain of AChE (E6) (P22303 32-614): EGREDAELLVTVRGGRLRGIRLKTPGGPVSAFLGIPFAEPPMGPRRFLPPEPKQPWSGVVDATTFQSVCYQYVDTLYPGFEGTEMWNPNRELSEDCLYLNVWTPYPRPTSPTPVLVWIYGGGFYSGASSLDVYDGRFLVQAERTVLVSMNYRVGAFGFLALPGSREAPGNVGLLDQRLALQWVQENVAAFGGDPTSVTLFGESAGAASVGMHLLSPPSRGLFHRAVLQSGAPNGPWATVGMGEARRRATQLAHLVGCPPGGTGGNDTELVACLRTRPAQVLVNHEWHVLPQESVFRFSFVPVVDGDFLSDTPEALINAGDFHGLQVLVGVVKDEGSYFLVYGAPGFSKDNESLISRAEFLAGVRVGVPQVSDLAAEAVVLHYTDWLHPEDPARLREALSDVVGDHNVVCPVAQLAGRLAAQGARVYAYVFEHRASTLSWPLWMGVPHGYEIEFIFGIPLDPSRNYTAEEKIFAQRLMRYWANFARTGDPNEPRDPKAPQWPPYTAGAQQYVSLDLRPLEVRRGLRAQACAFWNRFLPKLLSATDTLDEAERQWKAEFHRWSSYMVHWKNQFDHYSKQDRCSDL
Procedure: as §2, §3, §4

[2] = test system: D^70 G BuChE in tandem with one or two additional natural mutations; test: Reactivation by 2-PAM of DFP-inactivated enzyme; assay type: biochemical, human
Procedure: Single-step enrichment for AChE or BuChE on immobilized antibody: Monoclonal mouse anti-human serum BuChE (53-4) or anti-human ACHE (101-1) antibodies (Liao et al., 1993), were adsorbed to microliter plates (Nunc, Roskilde, Denmark) at 0.5 pg/ml in 0.1 M carbonate buffer, pH 9.6, for at least four hours at room temperature. Plates were then washed three times in PBS-T buffer (144 mM NaCl, 20 mM Na phosphate, pH 7.4, 0.05% Tween-20). Free binding sites on the well surface of the microliter plate were blocked with PBS-T for one hour at 37° C. […] Microinjected oocyte homogenates containing the enzyme were then added at a dilution of 1:20 in PBS-T or at a concentration of 100 mIU/ml in PBS-T for at least 3 hours at room temperature with agitation. Plates were washed three times with PBS-T before use. Inactivation was performed at pH 7.4 in order to facilitate comparison with similar studies in the literature.

BuChE F^329 R = test: Reactivation by PAM of DFP-inhibited enzyme; assay type: biochemical, human; settings: 1 mM PAM; pseudo-first order
Procedure: as §1

BuChE L^286 R = test: Reactivation by PAM of DFP-inhibited enzyme; assay type: biochemical, human; settings: 1 mM PAM; pseudo-first order
Procedure: as §1

BuChE S^425 P = test: Reactivation by PAM of DFP-inhibited enzyme; assay type: biochemical, human; settings: 1 mM PAM; pseudo-first order
Procedure: as §1

BuChE D^70 G + Y^114 H = test: Reactivation by PAM of DFP-inhibited enzyme; assay type: biochemical, human; settings: 1 mM PAM; pseudo-first order
Procedure: as §1

[3] = test system: BuChE D^70 G + Y^114 H + S^425 P; test: Reactivation by PAM of DFP-inhibited enzyme; assay type: biochemical, human
Procedure: as §1

BuChE D^70 G = test: Reactivation by PAM of DFP-inhibited enzyme; assay type: biochemical, human
Procedure: as §1

BuChE D^70 G + S^425 P = test: Reactivation by PAM of DFP-inhibited enzyme; assay type: biochemical, human; settings: 1 mM PAM; pseudo-first order
Procedure: as §1

BuChE F^329 Q = test: Reactivation by PAM of DFP-inhibited enzyme; assay type: biochemical, human; settings: 1 mM PAM; pseudo-first order
Procedure: as §1

BuChE L^286 Q = test: Reactivation by PAM of DFP-inhibited enzyme; assay type: biochemical, human; settings: 1 mM PAM; pseudo-first order
Procedure: as §1

BuChE F^329 C = test: Reactivation by PAM of DFP-inhibited enzyme; assay type: biochemical, human; settings: 1 mM PAM; pseudo-first order
Procedure: as §1

BuChE L^286 D = test: Reactivation by PAM of DFP-inhibited enzyme; assay type: biochemical, human; settings: 1 mM PAM; pseudo-first order
Procedure: as §1

BuChE F^329 D = test: Reactivation by PAM of DFP-inhibited enzyme; assay type: biochemical, human; settings: 1 mM PAM; pseudo-first order
Procedure: as §1

[4] = in vivo; cited from earlier work
[5] = true first order, 0.1 to 0.6 mM PAM

T1 sequence (P06276 29-602): as the sequence (P06276 29-602 L314K limits assumed) above, with K286L counted along it

## C[n+]1ccccc1C=NO [PAM, Pyridine-2-aldoxime methiodide]
DIP-BuChE; 1 mM PAM, pseudo-first order
  k'r × 10^3: 150 ± 30 min^-1
DIP-BuChE; DFP-inhibited BuChE
  pseudo-first order reactivation rate constant higher than for either form of AChE: 25 fold
DIP-BuChE; [5]
  kr × 10^3: 220 ± 60 min^-1
[1]; 1 mM PAM, pseudo-first order
  k'r × 10^3: 40 ± 18 min^-1
[1]; chimera
  reactivation rate constant lower than native BuChE: 5 fold
[1]; [5]
  kr × 10^3: 48 ± 20 min^-1
BuChE L^286 K; 1 mM PAM, pseudo-first order
  k'r × 10^3: 4 ± 1 min^-1
BuChE L^286 K; L^286 K
  reduction in the pseudo-first order rate constant for reactivation: 40 fold
BuChE L^286 K; [5]
  kr × 10^3: 35 ± 27 min^-1
AChE (E5); 1 mM PAM, pseudo-first order
  k'r × 10^3: 8 ± 3 min^-1
AChE (E5); [5]
  kr × 10^3: 10 ± 5 min^-1
AChE (E6); 1 mM PAM, pseudo-first order
  k'r × 10^3: 6 ± 2 min^-1
AChE (E6); [5]
  kr × 10^3: 7 ± 3 min^-1
[2]
  rate of reactivation lower than wild type: ≤ 40 fold
BuChE F^329 R
  k'r × 10^3: 43 min^-1
BuChE L^286 R
  k'r × 10^3: 6 ± 3 min^-1
BuChE S^425 P
  k'r × 10^3: 134 ± 8 min^-1
BuChE D^70 G + Y^114 H
  k'r × 10^3: 12 ± 5 min^-1
[3]; 1 mM PAM, pseudo-first order
  k'r × 10^3: 4 ± 1 min^-1
[3]; all three mutations
  decrease in the rate of reactivation: 40 fold
BuChE D^70 G; 1 mM PAM, pseudo-first order
  k'r × 10^3: 32 ± 4 min^-1
BuChE D^70 G; D^70 G, DFP-inactivated
  reactivation rate lower than wild-type: 5 fold
BuChE D^70 G + S^425 P
  k'r × 10^3: 11 min^-1
BuChE F^329 Q
  k'r × 10^3: 44 ± 15 min^-1
BuChE L^286 Q
  k'r × 10^3: 120 ± 20 min^-1
BuChE F^329 C
  k'r × 10^3: 14 ± 2 min^-1
BuChE L^286 D
  k'r × 10^3: 120 ± 30 min^-1
BuChE F^329 D
  k'r × 10^3: 8 ± 1 min^-1

## CCN(CC)C(=O)c1cccc(C)c1 [DEET]
[4]
  toxicity of anti-ChEs: amplify the toxicity of anti-ChEs

Source: patent US6326139A (priority 1997, dated 2001)
